These results are taken from paper PMC8041433 (Environmental Health Perspectives, 2021).

Where “and” joins values, the source holds several entries; their conditions need not be identical. Equal entries are not always repeated. Where two headings read alike, the source gives them in different places.

Experiment [1] addresses T1, recombinant human AChE (Homo sapiens, UniProt P22303). Briefly: biochemical.
Experiment [2] concerns the target AChE in neural stem cell spheroids (Homo sapiens, UniProt P22303). Put plainly: cell-based. Conditions: potency (IC50).
Experiment [3] deals with AChE in neural stem cells (Homo sapiens, UniProt P22303). Put plainly: cell-based.
Chain of AChE in neural stem cells (P22303 32-614): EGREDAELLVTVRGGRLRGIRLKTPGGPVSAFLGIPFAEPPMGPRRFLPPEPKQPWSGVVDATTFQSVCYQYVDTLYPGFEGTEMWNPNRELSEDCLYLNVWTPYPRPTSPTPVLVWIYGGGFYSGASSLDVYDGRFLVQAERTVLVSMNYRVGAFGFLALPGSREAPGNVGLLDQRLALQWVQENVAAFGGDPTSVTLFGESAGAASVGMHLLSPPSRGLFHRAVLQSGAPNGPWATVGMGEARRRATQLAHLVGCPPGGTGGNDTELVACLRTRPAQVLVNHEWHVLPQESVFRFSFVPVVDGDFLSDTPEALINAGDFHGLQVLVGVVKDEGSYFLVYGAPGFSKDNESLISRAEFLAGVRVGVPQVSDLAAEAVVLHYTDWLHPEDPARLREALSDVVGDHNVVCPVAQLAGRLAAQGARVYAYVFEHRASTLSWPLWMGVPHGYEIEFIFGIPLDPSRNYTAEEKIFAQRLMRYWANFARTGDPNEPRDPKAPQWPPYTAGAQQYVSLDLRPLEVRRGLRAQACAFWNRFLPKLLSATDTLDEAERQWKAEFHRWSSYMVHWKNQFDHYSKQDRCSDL
In experiment [4] the target is T1, recombinant human AChE. Put plainly: biochemical. The source holds these as a separate data set.
Experiment [5] concerns the target T1, recombinant human AChE.
A further experiment concerns the target AChE in SH-SY5Y cells (Homo sapiens, UniProt P22303). Put plainly: cell-based.
Experiment [6] concerns the target AChE in SH-SY5Y spheroids (Homo sapiens, UniProt P22303). Put plainly: cell-based. Conditions: potency (IC50).
Experiment [7] has as its target T1, recombinant human AChE. Briefly: biochemical. This is another data set of the same source.
Experiment [8] deals with T1, recombinant human AChE. Put plainly: biochemical. It counts as biochemical. Conditions: AC50 (uM).
Setting [9] is: potency (IC50), Enzyme with microsomes.
Setting [10] is: Neural stem cell spheroid (24 h).
[11] abbreviates: Neural stem cell spheroid (48 h).
[12] abbreviates: potency (IC50), SH-SY5Y cells monolayer.

The IC50 is the concentration that gives 50% inhibition. By AC50 is commonly meant the concentration giving half of the maximal activity seen.

Chain of AChE in SH-SY5Y spheroids (P22303 32-614): as above
T1 sequence (P22303 32-614): as above
Chain of AChE in neural stem cell spheroids (P22303 32-614): as above
Chain of AChE in SH-SY5Y cells (P22303 32-614): as above

As for `CCOP(=S)(OCC)Oc1cc(-c2ccccc2)on1` [Isoxathion], the IC50 is 2.11 µM at recombinant human AChE [1] (setting [9]); 0.73 µM in experiment [2] (setting [10]); 1.68 µM in [2] (setting [11]); 6.1 µM in experiment [3]; 44.4 µM at recombinant human AChE [4] (potency (IC50), Enzyme); 63.3 µM and 79.6 µM against AChE in SH-SY5Y cells (IC50 (uM)). Moreover, the half-maximal inhibitory concentration (IC50) against AChE in SH-SY5Y cells (setting [12]) stood at 17 µM; in experiment [6] (SH-SY5Y spheroids (24 h)) it was 27 µM; in experiment [6] (SH-SY5Y spheroids (48 h)), 17.7 µM; on recombinant human AChE [7], 85.3 ± 5.56 µM. Also, the “CC-v2 (curve classes)” value at recombinant human AChE [4] is recorded as -3; on recombinant human AChE [5], -1.1; on AChE in SH-SY5Y cells, -2.1. The Efficacy is listed as -107.392 at recombinant human AChE [4] and -99.076 at recombinant human AChE [5]. The AC50 at recombinant human AChE [8] was 55.9 µM (2×) and 49.8 µM (3×) and 44.4 µM (2×).
On to `CCOP(=S)(Oc1cnc(C(C)(C)C)nc1)OC(C)C` (stereo not shown) [Tebupirimfos], for which the IC50 stood at 10 µM on recombinant human AChE [1] (IC50 (uM)); 4.29 µM at recombinant human AChE [1] (setting [9]); 2.08 µM in experiment [2] (setting [10]); 3.7 µM in experiment [2] (setting [11]); 9.97 µM in [3]; 46.2 µM at recombinant human AChE [4] (potency (IC50), Enzyme). For the same molecule, the 50% inhibitory concentration (IC50) at recombinant human AChE [4] (read-out: IC50) was 63.3 µM; on AChE in SH-SY5Y cells (IC50 (uM)), 39.9 µM and 35.6 µM; at AChE in SH-SY5Y cells (setting [12]) it was 20.1 µM; in [6] (SH-SY5Y spheroids (24 h)), 28.2 µM; in [6] (SH-SY5Y spheroids (48 h)), 24.2 µM; on recombinant human AChE [7], 42.8 ± 2.79 µM. For the same molecule, the “CC-v2 (curve classes)” value is -2.1 at recombinant human AChE [4], -1.1 on recombinant human AChE [5] and -2.1 on AChE in SH-SY5Y cells. Moreover, the Efficacy at recombinant human AChE [4] is -96.664; at recombinant human AChE [5] it was -95.03. On recombinant human AChE [8], the AC50 was 70.3 µM and 55.9 µM and 49.8 µM.
